This passage reports viability fraction and AC50 results from PubChem BioAssay AID588846 (Broad Institute, 2011).

Structures are written as SMILES. Calls of active or inactive are those of the source. The rule behind the calls is not given here.

System in the first experiment: not listed separately
The experiment can be described thus: cytotoxicity in control HMLE_shGFP mammary epithelial cells, dose response, counter-screen for breast cancer stem cell killers, cell-based, CellTiter-Glo luminescence, dry powder, set 2 (AID 588846). The conditions noted are these: HMLE_shGFP viability, CellTiter-Glo luminescence, 72 h; at 32 µM (top of the series).
In the case of `O=C(/C=C/c1ccc(-c2ccccc2)cc1)NC1=NCCS1`, the viability fraction was 13.7% (inactive).

Consider `O=C(/C=C/c1ccc(Cl)c(Cl)c1)NC1=NCCS1`, for which the viability fraction is 22.2% (inactive).

Consider `O=C(NC1CCCC1)c1ccc(COc2ccccc2)o1`, for which the viability fraction is 95.7% (inactive).

Turning to `Cc1ccc(/C=C/C(=O)NC2=NCCS2)cc1`, the viability fraction was 88.1% (inactive).

Take `Cc1csc(NC(=O)c2ccc(CNc3ccccn3)o2)n1`: the viability fraction is 80.2% (inactive).

Consider `CC(C)c1ccc(/C=C/C(=O)NC2=NCCS2)cc1`, for which the viability fraction was 14% (inactive).

For `CCc1ccc(/C=C/C(=O)NC2=NCCS2)cc1`, the viability fraction was 92.9% (inactive).

A further experiment deals with HMLE_shGFP viability, CellTiter-Glo luminescence, 72 h. The experiment is described as above.
Settings: not given
On to `Cc1csc(NC(=O)c2ccc(COc3cccc(F)c3)o2)n1`, for which the AC50 is 4.4 µM.

Take `Cc1csc(NC(=O)c2ccc(COc3ccccc3F)o2)n1`: the half-maximal activity concentration (AC50) is 0.36 µM.

With `COc1ccc(/C=C/C(=O)NC2=NCCS2)c(OC)c1`, the AC50 is 30 µM.
